# Results from PubChem BioAssay (NCI).
#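 Exposure lasted 48 hours, with cells grown in 96-well plates and compounds tested at five concentrations. TGI denotes the concentration required for complete inhibition of growth.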
# Assays:
# Assay in all cases: growth of human tumour cells (NCI), 48 h
# 786-0 renal = test system: 786-0 renal
# A549 NSCLC = test system: A549 NSCLC
# ACHN renal = test system: ACHN renal
# BT-549 breast = test system: BT-549 breast
# CAKI-1 renal = test system: CAKI-1 renal
# CCRF-CEM leukemia = test system: CCRF-CEM leukemia
# COLO 205 colon = test system: COLO 205 colon
# DU-145 prostate = test system: DU-145 prostate
# EKVX NSCLC = test system: EKVX NSCLC
# HCC-2998 colon = test system: HCC-2998 colon
# HCT-116 colon = test system: HCT-116 colon
# HCT-15 colon = test system: HCT-15 colon
# HL-60(TB) leukemia = test system: HL-60(TB) leukemia
# HOP-62 NSCLC = test system: HOP-62 NSCLC
# HOP-92 NSCLC = test system: HOP-92 NSCLC
# HS 578T breast = test system: HS 578T breast
# HT29 colon = test system: HT29 colon
# IGROV1 ovarian = test system: IGROV1 ovarian
# K-562 leukemia = test system: K-562 leukemia
# KM12 colon = test system: KM12 colon
# LOX IMVI melanoma = test system: LOX IMVI melanoma
# M14 melanoma = test system: M14 melanoma
# MALME-3M melanoma = test system: MALME-3M melanoma
# MCF7 breast = test system: MCF7 breast
# MDA-MB-231 breast = test system: MDA-MB-231 breast
# MDA-MB-435 = test system: MDA-MB-435
# MDA-N = test system: MDA-N
# MOLT-4 leukemia = test system: MOLT-4 leukemia
# NCI-H226 lung = test system: NCI-H226 lung
# NCI-H23 lung = test system: NCI-H23 lung
# NCI-H460 lung = test system: NCI-H460 lung
# NCI-H522 lung = test system: NCI-H522 lung
# NCI/ADR-RES ovarian = test system: NCI/ADR-RES ovarian
# OVCAR-3 ovarian = test system: OVCAR-3 ovarian
# OVCAR-4 ovarian = test system: OVCAR-4 ovarian
# OVCAR-5 ovarian = test system: OVCAR-5 ovarian
# OVCAR-8 ovarian = test system: OVCAR-8 ovarian
# PC-3 prostate = test system: PC-3 prostate
# RPMI-8226 leukemia = test system: RPMI-8226 leukemia
# RXF 393 renal = test system: RXF 393 renal
# SF-268 CNS = test system: SF-268 CNS
# SF-295 CNS = test system: SF-295 CNS
# SF-539 CNS = test system: SF-539 CNS
# SK-MEL-2 melanoma = test system: SK-MEL-2 melanoma
# SK-MEL-28 melanoma = test system: SK-MEL-28 melanoma
# SK-MEL-5 melanoma = test system: SK-MEL-5 melanoma
# SK-OV-3 ovarian = test system: SK-OV-3 ovarian
# SN12C renal = test system: SN12C renal
# SNB-19 CNS = test system: SNB-19 CNS
# SNB-75 CNS = test system: SNB-75 CNS
# SR leukemia = test system: SR leukemia
# SW-620 colon = test system: SW-620 colon
# TK-10 renal = test system: TK-10 renal
# U251 CNS = test system: U251 CNS
# UACC-257 melanoma = test system: UACC-257 melanoma
# UACC-62 melanoma = test system: UACC-62 melanoma
# UO-31 renal = test system: UO-31 renal
# A498 renal = test system: A498 renal
smiles,measurement,setting,value
O=C1C(NS(=O)(=O)c2ccccc2)=C(n2cnc3ccccc32)C(=O)c2ccccc21,TGI,786-0 renal,> 100 µM
same,TGI,A549 NSCLC,> 100 µM
same,TGI,ACHN renal,> 100 µM
same,TGI,BT-549 breast,> 100 µM
same,TGI,CAKI-1 renal,> 100 µM
same,TGI,CCRF-CEM leukemia,> 100 µM
same,TGI,COLO 205 colon,> 100 µM
same,TGI,DU-145 prostate,> 100 µM
same,TGI,EKVX NSCLC,> 100 µM
same,TGI,HCC-2998 colon,> 100 µM
same,TGI,HCT-116 colon,> 100 µM
same,TGI,HCT-15 colon,> 100 µM
same,TGI,HL-60(TB) leukemia,> 100 µM
same,TGI,HOP-62 NSCLC,> 100 µM
same,TGI,HOP-92 NSCLC,> 100 µM
same,TGI,HS 578T breast,> 100 µM
same,TGI,HT29 colon,> 100 µM
same,TGI,IGROV1 ovarian,> 100 µM
same,TGI,K-562 leukemia,> 100 µM
same,TGI,KM12 colon,> 100 µM
same,TGI,LOX IMVI melanoma,> 100 µM
same,TGI,M14 melanoma,> 100 µM
same,TGI,MALME-3M melanoma,> 100 µM
same,TGI,MCF7 breast,> 100 µM
same,TGI,MDA-MB-231 breast,> 100 µM
same,TGI,MDA-MB-435,> 100 µM
same,TGI,MDA-N,> 100 µM
same,TGI,MOLT-4 leukemia,> 100 µM
same,TGI,NCI-H226 lung,> 100 µM
same,TGI,NCI-H23 lung,> 100 µM
same,TGI,NCI-H460 lung,> 100 µM
same,TGI,NCI-H522 lung,53.7 µM
same,TGI,NCI/ADR-RES ovarian,> 100 µM
same,TGI,OVCAR-3 ovarian,> 100 µM
same,TGI,OVCAR-4 ovarian,> 100 µM
same,TGI,OVCAR-5 ovarian,> 100 µM
same,TGI,OVCAR-8 ovarian,> 100 µM
same,TGI,PC-3 prostate,> 100 µM
same,TGI,RPMI-8226 leukemia,> 100 µM
same,TGI,RXF 393 renal,98.2 µM
same,TGI,SF-268 CNS,> 100 µM
same,TGI,SF-295 CNS,> 100 µM
same,TGI,SF-539 CNS,> 100 µM
same,TGI,SK-MEL-2 melanoma,> 100 µM
same,TGI,SK-MEL-28 melanoma,> 100 µM
same,TGI,SK-MEL-5 melanoma,> 100 µM
same,TGI,SK-OV-3 ovarian,> 100 µM
same,TGI,SN12C renal,> 100 µM
same,TGI,SNB-19 CNS,> 100 µM
same,TGI,SNB-75 CNS,85 µM
same,TGI,SR leukemia,> 100 µM
same,TGI,SW-620 colon,> 100 µM
same,TGI,TK-10 renal,> 100 µM
same,TGI,U251 CNS,> 100 µM
same,TGI,UACC-257 melanoma,> 100 µM
same,TGI,UACC-62 melanoma,> 100 µM
same,TGI,UO-31 renal,> 100 µM
CN(CCCNC(=O)c1cn(C)c2c1ccc1cc(Cl)ccc12)CCCNC(=O)c1cn(C)c2c1ccc1cc(Cl)ccc12,TGI,A498 renal,43.6 µM
same,TGI,ACHN renal,3.47 µM
same,TGI,BT-549 breast,30.9 µM
same,TGI,CAKI-1 renal,9.14 µM
same,TGI,COLO 205 colon,2.85 µM
same,TGI,DU-145 prostate,3.79 µM
same,TGI,EKVX NSCLC,> 100 µM
same,TGI,HCT-15 colon,2.89 µM
same,TGI,HOP-92 NSCLC,19.3 µM
same,TGI,HT29 colon,3.19 µM
same,TGI,K-562 leukemia,> 100 µM
same,TGI,M14 melanoma,3.75 µM
same,TGI,MALME-3M melanoma,7.05 µM
same,TGI,MDA-MB-435,3.23 µM
same,TGI,MDA-N,5.6 µM
same,TGI,NCI-H226 lung,> 100 µM
same,TGI,NCI-H23 lung,> 100 µM
same,TGI,NCI-H460 lung,> 100 µM
same,TGI,OVCAR-4 ovarian,> 27.2 µM
same,TGI,OVCAR-5 ovarian,18.3 µM
same,TGI,PC-3 prostate,2.97 µM
same,TGI,SF-268 CNS,3.25 µM
same,TGI,SF-539 CNS,3.88 µM
same,TGI,SK-MEL-28 melanoma,3.31 µM
same,TGI,SK-MEL-5 melanoma,20 µM
same,TGI,SN12C renal,3.35 µM
same,TGI,SNB-19 CNS,> 100 µM
same,TGI,SR leukemia,16.3 µM
same,TGI,TK-10 renal,> 100 µM
same,TGI,UACC-257 melanoma,> 100 µM
same,TGI,UACC-62 melanoma,3.76 µM
